Assay results taken from patent US9400274B2, “Cancer phospholipidome” (Katholieke Universiteit Leuven, priority 2010, dated 2016).
“Also recorded” adds a separate entry of the source.

Tests used:
[1] = tested on: Human breast adenocarcinoma cells MDA-MB-231; test: Phospholipid profiling (tandem MS) of soraphen-treated MDA-MB-231 cells; assay type: cell-based; details: 100 nm soraphen vs vehicle, 72 h, four phospholipid classes
Method: Human breast adenocarcinoma cells MDA-MB-231 (obtained from the American Type Culture Collection) were cultured in DMEM-F12 supplemented with 10% fetal bovine serum and were grown at 37° C. in a humidified 5% CO2 incubator. The day after seeding, cells were treated with 100 nm soraphen or vehicle (control) for 72 h.
Lipids were extracted from both soraphen and vehicle treated cells and were analyzed by tandem mass spectrometry.

[2] = tested on: human renal cell carcinoma cell line RCC4; test: Phospholipid profiling (tandem MS) of soraphen-treated RCC4 cells; assay type: cell-based; details: 100 nm soraphen vs vehicle, 72 h, PC, PE, PI, PS classes
Method: Renal cancer cell lines RCC4 VHL (Von Hippel Lindau) positive and negative were cultured in advanced DMEM supplemented with 10% fetal bovine serum, 1% PSG and 0.5 mg/ml G418. Cells were grown at 37° C. in a humidified 5% CO2 incubator. The day after seeding, cells were treated with 100 nm soraphen or vehicle (control) for 72 h.
To assess the impact of fatty acyl chain elongation and of chemical inhibitors of this process, the human renal cell carcinoma cell line RCC4 was treated with soraphen.

## CO[C@H]1CCCC[C@@H](c2ccccc2)OC(=O)[C@@H](C)[C@@]2(O)O[C@H]([C@@H](C)[C@H](O)[C@H]2OC)[C@@H](C)/C=C/[C@H]1OC [soraphen]
[1]
  changes in phospholipid acyl chain composition (soraphen/control ratio): a marked shift from longer to shorter lipid species; also recorded: a clear decrease in the longer lipid species
[2]
  changes in phospholipid acyl chain composition (soraphen/control ratio): a marked shift from longer to shorter lipid species; also recorded: a marked inhibition of acyl chain elongation
